Where “and” joins values, the source holds several entries; their conditions need not be identical. Equal values may be shown once.
Experiments:
[1] = xn = mol fraction of the nth substance listed; settings: 101 kPa, Liquid; for speed of sound: Frequency=3 MHz, Sing-around technique in a fixed-path interferometer; for mass density: Vibrating tube method
[2] = 101 kPa; for mass density: Vibrating tube method; for speed of sound: Frequency=3 MHz, Sing-around technique in a fixed-path interferometer

CC#N [acetonitrile] + O=C1CCCN1
[1], x2 = 0
Settings | mass density [kg/m3] | speed of sound [m/s]
298.15 K | 776.609 | 1278.9
303.15 K | 771.183 | 1259
308.15 K | 765.722 | 1239.1
313.15 K | 760.231 | 1219.3
318.15 K | 754.709 | 1199.5
323.16 K | 749.15 | 1179.6

CN1CCCC1=O [N-methylpyrrolidone] + ClC(Cl)Cl
[1], x1 = 1
Settings | mass density [kg/m3] | speed of sound [m/s]
293.15 K | 1032.51 | 1564.7
298.14 K | 1028.07 | 1545.5
303.14 K | 1023.61 | 1526.1
308.15 K | 1019.15 | 1506.9

CC#N [acetonitrile]
[2], Liquid
Settings | mass density | speed of sound
293.15 K | 781.989 kg/m3 | –
298.15 K | 776.609 kg/m3 and 776.616 kg/m3 | 1278.9 m/s and 1278.6 m/s
303.15 K | 771.183 kg/m3 and 771.178 kg/m3 | 1259 m/s and 1258.4 m/s
308.15 K | 765.722 kg/m3 and 765.719 kg/m3 | 1239.1 m/s and 1238.3 m/s
313.15 K | 760.223 kg/m3 and 760.231 kg/m3 | 1219.3 m/s and 1218.2 m/s
318.15 K | 754.709 kg/m3 | 1199.5 m/s
318.16 K | 754.702 kg/m3 | 1198.1 m/s
323.16 K | 749.144 kg/m3 and 749.15 kg/m3 | 1178 m/s and 1179.6 m/s

CC#N [acetonitrile] + CN1CCCC1=O
[1], x2 = 0
Settings | mass density [kg/m3] | speed of sound [m/s]
293.15 K | 781.989 | –
298.15 K | 776.616 | 1278.6
303.15 K | 771.178 | 1258.4
308.15 K | 765.719 | 1238.3
313.15 K | 760.223 | 1218.2
318.16 K | 754.702 | 1198.1
323.16 K | 749.144 | 1178

ClC(Cl)Cl [trichloromethane]
[2], Liquid
Settings | mass density | speed of sound
293.15 K | 1487.52 kg/m3 and 1488.55 kg/m3 | 1001.5 m/s and 1000.9 m/s
295.15 K | 1483.74 kg/m3 | –
297.15 K | 1479.93 kg/m3 | –
298.15 K | 1478.02 kg/m3 and 1479.07 kg/m3 | 984.65 m/s and 984.33 m/s
303.15 K | 1468.47 kg/m3 | 967.76 m/s
303.16 K | 1469.52 kg/m3 | 967.53 m/s
308.15 K | 1459.91 kg/m3 | 950.62 m/s
308.16 K | 1458.85 kg/m3 | 950.87 m/s

CN1CCCC1=O [N-methylpyrrolidone]
[2], Liquid
Settings | mass density | speed of sound
293.15 K | 1032.25 kg/m3 and 1032.51 kg/m3 | 1564.7 m/s
298.14 K | 1028.07 kg/m3 | 1545.5 m/s
298.15 K | 1027.79 kg/m3 | 1544.6 m/s
303.14 K | 1023.61 kg/m3 | 1526.1 m/s
303.15 K | 1023.33 kg/m3 | 1525.3 m/s
308.15 K | 1019.15 kg/m3 and 1018.87 kg/m3 | 1506 m/s and 1506.9 m/s
313.15 K | 1014.41 kg/m3 | 1486.8 m/s
318.15 K | 1009.95 kg/m3 | 1467.8 m/s
323.16 K | 1005.48 kg/m3 | 1448.9 m/s

O=C1CCCN1 [2-pyrrolidinone]
[2], Metastable liquid
Settings | mass density [kg/m3] | speed of sound [m/s]
293.15 K | 1111.44 | 1649.3
298.15 K | 1107.35 | 1632.9
301.15 K | 1104.88 | –
303.15 K | 1103.26 | 1616.7
308.15 K | 1099.17 | 1600.5
313.15 K | 1095.08 | 1584.5
318.16 K | 1091 | 1568.6
323.16 K | 1086.92 | 1552.8

ClC(Cl)Cl [trichloromethane] + O=C1CCCN1
[1], x2 = 0
Settings | mass density [kg/m3] | speed of sound [m/s]
293.15 K | 1487.52 | 1001.5
295.15 K | 1483.74 | –
297.15 K | 1479.93 | –
298.15 K | 1478.02 | 984.65
303.15 K | 1468.47 | 967.76
308.16 K | 1458.85 | 950.87

Source: the NIST ThermoML archive (doi:10.1021/acs.jced.5b00474)
